Measurements reported in PMC11022729 (Advanced Science, 2024).

Tests used:
human D3 receptor = target: T1, human D3 receptor (Homo sapiens, UniProt P35462); experiment: [3H]-spiperone competition binding assay, D3; conditions: for Ki: mean [CI 95%]
T1 construct: expressed in transfected cells; host or cells: CHO
Protocol: CHO cells stably expressing human dopamine D2short (D2R) and D3 receptor (D3R) were washed and harvested using PBS. […] The cell membrane homogenate was centrifuged (20 000 × g, 20 min, 4 °C), and the resulting cell pellet was resuspended in the binding buffer. Crude membrane extracts were kept at −80 °C until use. Before starting the experiments, cell membranes were thawed, homogenized by sonication (3 × 10 s), and stored in an ice‐cold binding buffer. […] Assays were performed at least in triplicate with appropriate concentrations ranging from 0.01 nM to 100 µM of the test compound. Non‐specific binding was determined using 10 µM haloperidol. By filtering through GF/B filters pretreated with 0.3% (m/v) polyethyleneimine, the bound radioligand was separated from free radioligand using a cell harvester. Radioactivity was measured using liquid scintillation counting. Data were evaluated using the GraphPad Prism 9 software (San Diego, CA, USA) with a nonlinear regression fit.

purified human Slack = target: T2, purified human Slack (Homo sapiens, UniProt Q5JUK3); experiment: Differential scanning fluorimetry (DSF) on purified Slack; type: binding; conditions: 100 µM ligand concentration; for melting temperature Tm of Slack: Tm without ligand 30 °C
T2 construct: NM_02 0822.3, residues 1–1235; green fluorescent protein (GFP) (C, cleaved yes); twin strep-II-tag (C, cleaved yes); made in house; host or cells: HEK293F cells, transient transfection
T2 sequence (Q5JUK3 1-1235 isoform Q5JUK3-3): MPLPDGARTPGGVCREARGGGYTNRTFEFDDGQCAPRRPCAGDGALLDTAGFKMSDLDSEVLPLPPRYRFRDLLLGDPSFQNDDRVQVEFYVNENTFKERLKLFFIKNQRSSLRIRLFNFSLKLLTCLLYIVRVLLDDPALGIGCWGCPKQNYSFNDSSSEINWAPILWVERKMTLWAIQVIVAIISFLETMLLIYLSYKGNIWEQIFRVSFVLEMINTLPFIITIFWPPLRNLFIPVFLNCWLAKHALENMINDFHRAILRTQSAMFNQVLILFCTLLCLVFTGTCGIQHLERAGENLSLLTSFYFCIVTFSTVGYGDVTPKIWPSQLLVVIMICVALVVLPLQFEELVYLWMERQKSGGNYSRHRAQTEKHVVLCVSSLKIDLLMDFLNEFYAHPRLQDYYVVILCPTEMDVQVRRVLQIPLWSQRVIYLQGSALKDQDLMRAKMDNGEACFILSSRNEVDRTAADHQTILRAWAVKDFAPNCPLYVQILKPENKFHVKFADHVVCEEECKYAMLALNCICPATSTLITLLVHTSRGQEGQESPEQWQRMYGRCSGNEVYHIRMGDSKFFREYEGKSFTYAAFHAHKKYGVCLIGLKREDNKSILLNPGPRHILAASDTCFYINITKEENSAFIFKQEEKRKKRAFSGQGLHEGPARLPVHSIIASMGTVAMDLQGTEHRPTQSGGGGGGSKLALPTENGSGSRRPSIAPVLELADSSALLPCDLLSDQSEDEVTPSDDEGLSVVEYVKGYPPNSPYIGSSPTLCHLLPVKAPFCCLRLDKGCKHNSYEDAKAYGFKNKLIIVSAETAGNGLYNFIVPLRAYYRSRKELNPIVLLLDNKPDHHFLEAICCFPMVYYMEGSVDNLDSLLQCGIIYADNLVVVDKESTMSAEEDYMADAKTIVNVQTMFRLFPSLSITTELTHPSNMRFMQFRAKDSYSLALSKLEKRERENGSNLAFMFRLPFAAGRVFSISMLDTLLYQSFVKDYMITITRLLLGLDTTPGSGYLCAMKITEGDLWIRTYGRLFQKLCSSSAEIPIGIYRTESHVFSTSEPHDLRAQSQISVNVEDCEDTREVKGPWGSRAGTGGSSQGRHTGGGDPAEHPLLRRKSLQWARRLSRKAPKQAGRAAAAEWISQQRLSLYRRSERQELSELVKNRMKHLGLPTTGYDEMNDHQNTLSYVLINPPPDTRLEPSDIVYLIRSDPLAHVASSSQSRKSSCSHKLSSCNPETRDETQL
Protocol: To confirm that the cellular effect of compound 6 was mediated by its direct interaction with Slack, ligand binding on purified human Slack (Figure S6A, Supporting Information) was assessed by differential scanning fluorimetry (DSF), thereby evaluating a ligand‐dependent shift of the protein melting temperature (T m). The cysteine‐reacting dye 7‐diethylamino‐3‐(4‐maleimidophenyl)−4‐methylcoumarin (CPM), which binds to cysteine residues that are accessible during protein unfolding, was used as an indicator for protein unfolding. […] In the presence of a Slack inhibitor (compound 31 from ref. [27]), known to directly interact with the protein and therefore used as a positive control, T m saturated at 45.7 ± 3.2 °C at a ligand concentration of 100 µM (Figure S6B, Supporting Information), indicating a notable stabilization of Slack.
The melting temperature was determined from the fluorescence of 7‐diethylamino‐3‐(4‐maleimidophenyl)−4‐methylcoumarin (CPM) dye. […] Five microliters of the CPM dye (15 µg mL^−1 CPM final concentration) in the SEC buffer was added to the protein compound mixture and further incubated for 30 min on ice in the dark. The samples were centrifuged at 15 000 × g at 4 °C for 10 min to remove aggregates. Melting curves were recorded in an RT‐PCR (Thermo Fischer) using a temperature range of 10–80 °C in 1 °C‐increments, increasing every 75 s. The CPM dye was excited at a wavelength of 365 nm and the emission was measured at 470 nm.

mice = experiment: Vertical pole test; type: in vivo, mouse; conditions: 15 min after dosing
Protocol: As a prerequisite for interpreting itch behavior experiments, we first tested motor function after systemic dosing.
Mice were placed on a rotarod treadmill (Ugo Basile, Italy) at increasing speed (4–40 rpm over 300 s) and trained for 4–5 consecutive days. Only mice that reached 300 s without falling off during the training sessions were included in the experiment. In the vertical pole test, the mice were placed head‐upward on top of a vertical pole with a rough surface (diameter, 1 cm; height, 40 cm), and the time until the animals reached the ground was recorded (cut‐off time 20 s). Only mice that reached the ground within 10 s in the baseline measurements were included in the experiment. […] The means of three trials at each time point were calculated for further analyses.

T1 sequence (P35462 whole entry): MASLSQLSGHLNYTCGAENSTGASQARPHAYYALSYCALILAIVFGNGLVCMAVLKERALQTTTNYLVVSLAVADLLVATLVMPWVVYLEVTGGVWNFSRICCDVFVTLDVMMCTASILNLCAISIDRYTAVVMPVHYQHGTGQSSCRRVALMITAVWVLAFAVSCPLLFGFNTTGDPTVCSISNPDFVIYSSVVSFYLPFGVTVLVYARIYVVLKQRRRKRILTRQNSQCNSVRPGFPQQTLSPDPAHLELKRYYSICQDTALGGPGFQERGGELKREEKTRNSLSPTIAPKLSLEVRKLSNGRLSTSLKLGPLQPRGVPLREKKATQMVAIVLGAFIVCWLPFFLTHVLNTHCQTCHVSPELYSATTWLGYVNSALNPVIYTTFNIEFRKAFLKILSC

Compound	Ki (human D3 receptor) [µM]	increase in Tm (purified human Slack) [°C]	melting temperature Tm of Slack (purified human Slack) [°C]	motor function, vertical pole test (mice; dose of ≥ 0.39 mg kg−1 i.p.)	fold lower affinity against D3 as compared to loxapine (human D3 receptor)	motor function, vertical pole test (mice; 3–30 mg i.p.)
CN1CCN(C2=Nc3ccccc3Oc3ccc(Cl)cc32)CC1 [Loxapine, reference compound]	0.112	7.8	37.8 ± 1.3	markedly reduced the ability of the mice to perform		
O=C(O)COCCN1CCN(C2=Nc3ccccc3Oc3ccc(Cl)cc32)CC1 [Compound 6]	3.52	9.3	39.3 ± 0.9		≈ 31 fold	did not impair motor function
